Experimental findings from patent US20130123227A1, “NOVEL ORGANO-PALLADIUM COMPLEXES” (priority 2010, published 2013) are described below.

Structures are written as SMILES.

This series is described as follows: Seizure incidence in mice. It counts as in vivo. An excerpt:
The original Pd-lipoic acid complex provides a structure in which the palladium is safely sequestered, and which is also active in the lipoic acid binding site in mitochondrial complex I, thereby coupling to enzymatic charge transfer. […] To eliminate seizure activity, the G10 stage of the synthetic complex was further investigated and combined with various substances, until there were no seizures. This was ultimately achieved by complexing with zinc-amino acid complexes.

Consider `C[C@@H](O)[C@H](N)C(=O)O.C[C@@H](O)[C@H](N)C(=O)O.[Zn]` [Zn-bis(threonine)], for which the seizures entry was “modulates and inhibits the seizure potentials”.
